Source: patent US10098879B2 (priority 2015, dated 2018)

Experiments:
Ebola virus (EBOV) = conditions: human, in vivo
Ebola virus = conditions: mouse, in vivo, 150 mg/kg; cited from earlier work

NC(=O)c1nc(F)cnc1O [Favipiravir, 6-fluoro-3-hydroxy-2-pyrazinecarboxamide]
Effect on survival, patients with CT<20 (Ebola virus (EBOV)): no indication that favipiravir monotherapy improved survival | Mortality (participants died), baseline CT <20 (Ebola virus (EBOV)): 85% | Mortality (participants died), baseline CT ≥20 (Ebola virus (EBOV)): 15% | Mortality in patients with abnormal baseline creatinine values and BCT<20 (Ebola virus (EBOV)): 100% | Mortality in patients with abnormal baseline creatinine values and BCT≥20 (Ebola virus (EBOV)): 7% | Mortality rate versus pre-trial figures, patients with CT≥20 (Ebola virus (EBOV)): lower mortality rate compared to pre-trial figures | Mortality (participants died), overall (Ebola virus (EBOV); po): 48% | Tolerance of the drug (Ebola virus (EBOV); po): well tolerated | Biochemical parameters of disease severity (Ebola virus): reduced biochemical parameters of disease severity | Survival (Ebola virus): 100% | Virus clearance (Ebola virus): rapid virus clearance
